System: subjects with moderate-to-severe plaque psoriasis
Test: Safety, adverse events, Example 2 through Week 56
Type: in vivo, human
Excerpt: The LTE safety analysis was based on randomized participants in Example who entered the present long-term extension study and received at least one dose of study intervention (including a partial dose) during the study period.

[1] = 25 mg QD, Week 16 through Week 56

SMILES: CC(=O)NCCCC[C@@H]1NC(=O)[C@H](Cc2c[nH]c3c(C)cccc23)NC(=O)[C@H]([C@@H](C)O)NC(=O)[C@H](CC(N)=O)NC(=O)[C@@H](NC(C)=O)C(C)(C)SSC(C)(C)[C@@H](C(=O)N[C@@H](Cc2ccc(OCCN)cc2)C(=O)N[C@@H](Cc2ccc3ccccc3c2)C(=O)NC2(C(=O)N[C@@H](CCC(=O)O)C(=O)N[C@@H](CC(N)=O)C(=O)N[C@@H](Cc3cccnc3)C(=O)N(C)CC(N)=O)CCOCC2)NC1=O [IL-23 receptor antagonist peptide, Ac-[Pen]*-N-T-[W(7-Me)]-[Lys(Ac)]-[Pen]*-Phe[4-(2-aminoethoxy)]-[2-Nal]-[THP]-E-N-[3-Pal]-Sarc-NH2 (*[Pen]-[Pen]* formdisulfidebond)]
- Ketonuria: number of subjects (25 mg BID, through Week 56): 0
- Leukocyturia: number of subjects (25 mg BID, through Week 56): 0
- Leukopenia: number of subjects (25 mg BID, through Week 56): 0
- Libido decreased: number of subjects (25 mg BID, through Week 56): 0
- Liver disorder: number of subjects (25 mg BID, through Week 56): 0
- Lymphopenia: number of subjects (25 mg BID, through Week 56): 0
- Menopause: number of subjects (25 mg BID, through Week 56): 0
- Metabolism and nutrition disorders: % of subjects (25 mg BID, through Week 56): (7.3%)
- Metabolism and nutrition disorders: number of subjects (25 mg BID, through Week 56): 3
- Neoplasms benign, malignant and unspecified (incl cysts and polyps): % of subjects (25 mg BID, through Week 56): (2.4%)
- Neoplasms benign, malignant and unspecified (incl cysts and polyps): number of subjects (25 mg BID, through Week 56): 1
- Nephrolithiasis: number of subjects (25 mg BID, through Week 56): 0
- Neutropenia: number of subjects (25 mg BID, through Week 56): 0
- Night sweats: number of subjects (25 mg BID, through Week 56): 0
- Non-cardiac chest pain: number of subjects (25 mg BID, through Week 56): 0
- Ocular cyst: number of subjects (25 mg BID, through Week 56): 0
- Oedema peripheral: number of subjects (25 mg BID, through Week 56): 0
- Oropharyngeal pain: number of subjects (25 mg BID, through Week 56): 0
- Procedural pain: number of subjects (25 mg BID, through Week 56): 0
- Productive cough: number of subjects (25 mg BID, through Week 56): 0
- Proteinuria: number of subjects (25 mg BID, through Week 56): 0
- Pruritus: number of subjects (25 mg BID, through Week 56): 0
- Psoriasis: % of subjects (25 mg BID, through Week 56): (2.4%)
- Psoriasis: number of subjects (25 mg BID, through Week 56): 1
- Psychiatric disorders: % of subjects (25 mg BID, through Week 56): (2.4%)
- Psychiatric disorders: number of subjects (25 mg BID, through Week 56): 1
- Pyrexia: number of subjects (25 mg BID, through Week 56): 0
- Rash pruritic: number of subjects (25 mg BID, through Week 56): 0
- Renal and urinary disorders: number of subjects (25 mg BID, through Week 56): 0
- Renal mass: number of subjects (25 mg BID, through Week 56): 0
- Respiratory, thoracic and mediastinal disorders: % of subjects (25 mg BID, through Week 56): (2.4%)
- Respiratory, thoracic and mediastinal disorders: number of subjects (25 mg BID, through Week 56): 1
- Retinal vein occlusion: number of subjects (25 mg BID, through Week 56): 0
- Rhinorrhoea: number of subjects (25 mg BID, through Week 56): 0
- Seasonal allergy: number of subjects (25 mg BID, through Week 56): 0
- Skin and subcutaneous tissue disorders: % of subjects (25 mg BID, through Week 56): (4.9%)
- Skin and subcutaneous tissue disorders: number of subjects (25 mg BID, through Week 56): 2
- Skin laceration: number of subjects (25 mg BID, through Week 56): 0
- Skin papilloma: number of subjects (25 mg BID, through Week 56): 0
- Social circumstances: number of subjects (25 mg BID, through Week 56): 0
- Steatohepatitis: number of subjects (25 mg BID, through Week 56): 0
- Subjects with AE leading to discontinuation: Abdominal discomfort (25 mg BID, through Week 56): 0
- Subjects with AE leading to discontinuation: Abdominal pain (25 mg BID, through Week 56): 0
- Subjects with AE leading to discontinuation: Alanine aminotransferase increased (25 mg BID, through Week 56): 0
- Subjects with AE leading to discontinuation: Aspartate aminotransferase increased (25 mg BID, through Week 56): 0
- Subjects with AE leading to discontinuation: Ear and labyrinth disorders (25 mg BID, through Week 56): 0
- Subjects with AE leading to discontinuation: Gamma-glutamyltransferase increased (25 mg BID, through Week 56): 0
- Subjects with AE leading to discontinuation: Investigations (25 mg BID, through Week 56): 0
- Subjects with AE leading to discontinuation: Nausea (25 mg BID, through Week 56): 0
- Subjects with AE leading to discontinuation: Suicide attempt (25 mg BID, through Week 56): 0
- Subjects with AE leading to discontinuation: Transaminases increased (25 mg BID, through Week 56): 0
- Subjects with AE leading to discontinuation: Vertigo (25 mg BID, through Week 56): 0
- Subjects with AE leading to discontinuation: Vomiting (25 mg BID, through Week 56): 0
- Subjects with AE leading to discontinuation: Weight increased (25 mg BID, through Week 56): 0
- Subjects with COVID-19 associated AE: SARS-CoV-2 test positive (25 mg BID, through Week 56): 0
- Subjects with treatment-emergent AE: Arthralgia (25 mg BID, through Week 56): 0
- Subjects with treatment-emergent AE: Cough (25 mg BID, through Week 56): 0
- Subjects with treatment-emergent AE: Nasopharyngitis (25 mg BID, through Week 56): 8
- Subjects with treatment-emergent serious AE: COVID-19 (25 mg BID, through Week 56): 0
- Subjects with treatment-emergent serious AE: Cerebrovascular accident (25 mg BID, through Week 56): 0
- Subjects with treatment-emergent serious AE: Coronary artery disease (25 mg BID, through Week 56): 0
- Subjects with treatment-emergent serious AE: Diverticulitis (25 mg BID, through Week 56): 0
- Subjects with treatment-emergent serious AE: Foot deformity (25 mg BID, through Week 56): 0
- Subjects with treatment-emergent serious AE: General disorders and administration site conditions (25 mg BID, through Week 56): 0
- Subjects with treatment-emergent serious AE: Infected cyst (25 mg BID, through Week 56): 0
- Subjects with treatment-emergent serious AE: Infections and infestations (25 mg BID, through Week 56): 0
- Subjects with treatment-emergent serious AE: Intervertebral disc protrusion (25 mg BID, through Week 56): 0
- Subjects with treatment-emergent serious AE: Musculoskeletal and connective tissue disorders (25 mg BID, through Week 56): 0
- Subjects with treatment-emergent serious AE: Neoplasms benign, malignant and unspecified (incl cysts and polyps) (25 mg BID, through Week 56): 0
- Subjects with treatment-emergent serious AE: Nervous system disorders (25 mg BID, through Week 56): 0
- Subjects with treatment-emergent serious AE: Non-cardiac chest pain (25 mg BID, through Week 56): 0
- Subjects with treatment-emergent serious AE: Psychiatric disorders (25 mg BID, through Week 56): 0
- Subjects with treatment-emergent serious AE: Suicide attempt (25 mg BID, through Week 56): 0
- Subjects with treatment-emergent serious AE: Uterine leiomyoma (25 mg BID, through Week 56): 0
- Suicide attempt: number of subjects (25 mg BID, through Week 56): 0
- Sunburn: % of subjects (25 mg BID, through Week 56): (2.4%)
- Sunburn: number of subjects (25 mg BID, through Week 56): 1
- Thrombocytopenia: number of subjects (25 mg BID, through Week 56): 0
- Thrombocytosis: number of subjects (25 mg BID, through Week 56): 0
- Tonsillar hypertrophy: % of subjects (25 mg BID, through Week 56): (2.4%)
- Tonsillar hypertrophy: number of subjects (25 mg BID, through Week 56): 1
- Tooth fracture: number of subjects (25 mg BID, through Week 56): 0
- Type 2 diabetes mellitus: number of subjects (25 mg BID, through Week 56): 0
- Urinary tract disorder: number of subjects (25 mg BID, through Week 56): 0
- Uterine leiomyoma: number of subjects (25 mg BID, through Week 56): 0
- Vascular disorders: % of subjects (25 mg BID, through Week 56): (4.9%)
- Vascular disorders: number of subjects (25 mg BID, through Week 56): 2
- Ventricular dysfunction: % of subjects (25 mg BID, through Week 56): (2.4%)
- Ventricular dysfunction: number of subjects (25 mg BID, through Week 56): 1
- Vertigo: number of subjects (25 mg BID, through Week 56): 0
- Vitamin D deficiency: % of subjects (25 mg BID, through Week 56): (2.4%)
- Vitamin D deficiency: number of subjects (25 mg BID, through Week 56): 1
- Number of subjects with treatment-emergent AE: Cholelithiasis [1]: 0
- Number of subjects with treatment-emergent AE: Ear and labyrinth disorders [1]: 1
- Number of subjects with treatment-emergent AE: Endocrine disorders [1]: 0
- Number of subjects with treatment-emergent AE: Eye disorders [1]: 0
- Number of subjects with treatment-emergent AE: Eyelid skin dryness [1]: 0
- Number of subjects with treatment-emergent AE: Goiter [1]: 0
- Number of subjects with treatment-emergent AE: Hepatobiliary disorders [1]: 0
- Number of subjects with treatment-emergent AE: Hypertransaminasemia [1]: 0
- Number of subjects with treatment-emergent AE: Immune system disorders [1]: 0
- Number of subjects with treatment-emergent AE: Insomnia [1]: 0
- Number of subjects with treatment-emergent AE: Ocular cyst [1]: 0
- Number of subjects with treatment-emergent AE: Psychiatric disorders [1]: 0
- Number of subjects with treatment-emergent AE: Retinal vein occlusion [1]: 0
- Number of subjects with treatment-emergent AE: Seasonal allergy [1]: 0
- Number of subjects with treatment-emergent AE: Vertigo [1]: 1
- Subjects with treatment-emergent AE: Ear and labyrinth disorders (%) [1]: (2.9%)
- Subjects with treatment-emergent AE: Vertigo (%) [1]: (2.9%)
- Acrochordon: number of subjects (25 mg QD, through Week 56): 0
- Actinic keratosis: number of subjects (25 mg QD, through Week 56): 0
- Alopecia: % of subjects (25 mg QD, through Week 56): (2.3%)
- Alopecia: number of subjects (25 mg QD, through Week 56): 1
- Asthenia: number of subjects (25 mg QD, through Week 56): 0
- Asthma: number of subjects (25 mg QD, through Week 56): 0
- Atrioventricular block first degree: number of subjects (25 mg QD, through Week 56): 0
- Basal cell carcinoma: number of subjects (25 mg QD, through Week 56): 0
- Blood and lymphatic system disorders: % of subjects (25 mg QD, through Week 56): (2.3%)
- Blood and lymphatic system disorders: number of subjects (25 mg QD, through Week 56): 1
- Bronchitis chronic: number of subjects (25 mg QD, through Week 56): 0
- Bundle branch block right: number of subjects (25 mg QD, through Week 56): 0

— US20260232767A1, “INTERLEUKIN-23 RECEPTOR ANTAGONIST PEPTIDES FOR USE IN THE TREATMENT OF PSORIASIS” (Janssen Pharmaceutica NV, priority 2023, published 2026)
